Laboratory results from patent publication US20240199604A1, “SUPRAMOLECULAR POLYMER THERAPEUTICS AND DIAGNOSTICS” (The Regents of the University of California, priority 2022, published 2024).

Target: T1, α-synuclein fibrils isolated from an MSA patient sample (Homo sapiens, UniProt P37840)
T1 construct: fresh-frozen tissue from the cerebellum of patients clinically and neuropathologically diagnosed with MSA; from tissue; host or cells: cerebellum of MSA patients (sarkosyl-insoluble fraction)
Assay: Cryo-EM co-structure with α-synuclein fibrils from MSA patient samples
Assay type: binding
Settings: fibrils from MSA patient sample, cryoelectronic microscopy
Description: MSA filament purification. Filament purification was based on Schweigenhauser et al., 2020^2. Briefly, 1-2 g of fresh-frozen tissue from the cerebellum of patients clinically and neuropathologically diagnosed with MSA was homogenized at 20 mL/g of tissue in 10 mM Tris-HCl (pH 7.4), 800 mM NaCl, 1 mM EGTA, and 10% sucrose. A final concentration of 1% N-laurosarcosinate (w/v) was added to the homogenates, and these mixtures were incubated at 37° C. for 30 minutes. Homogenates were then centrifuged at 10,000 g for 10 minutes, and the supernatant was kept and then centrifuged at 100,000 g for 20 minutes. The pellets were resuspended at 500 μL/g of frozen tissue in 10 mM Tris-HCl (pH 7.4), 800 mM NaCl, 1 mM EGTA, and 10% sucrose. This was followed by another centrifugation at 3,000 g for 5 minutes. The supernatant was kept and diluted threefold with 50 mM Tris-HCl (pH 7.4), 150 mM NaCl, 10% sucrose, and 2% sarkosyl, followed by another centrifugation at 150,000 g for 1 hour. The final pellet resuspended in 30 mM Tris-HCl (pH 7.4) at a concentration of […] frozen tissue.
Cryo-EM sample preparation and data collection. Purified frontal cortex and cerebellum tissue was incubated with 20 μM ligand for 45 minutes prior to freezing. For the tau PHF, 3 μL of purified filaments mixed with GTP-1 was added to a glow-discharged 200 mesh 1.2/1.3R Au Quantifoil grid for 10 seconds before blotting for 2 seconds, and then a second 3 μL aliquot was added for 3 seconds and blotted for 1 second before being plunge frozen in liquid ethane using a FEI Vitrobot Mark IV (Thermo Fisher Scientific). For the synuclein ligands, 3 μL of purified filaments mixed with compound was added to a 200 mesh 1.2/1.3R Au Quantifoil grid coated with a 2 nm thick layer of carbon, which had not been glow discharged. After 30 seconds, grids were blotted for 7.5 seconds at room temperature and 100% humidity. Grids were plunge frozen in liquid ethane using a FEI Vitrobot Mark IV. […] A defocus range of 0.8 to 1.8 μm was used with a total exposure time of 2.024 seconds fractionated into 0.025 seconds subframes. The total dose for each movie was 46 electrons/Å^2. Movies were motion-corrected using MotionCor2^3 in Scipion^4 and were Fourier cropped by a factor of 2 to a final pixel size of 0.834 Å per pixel.
Image processing. All image processing was done in RELION 4^5, and the same workflow was used for each dataset. Dose-weighted summed micrographs were imported into RELION 4. The contrast transfer function was estimated using CTFFIND-4.1^6. Filaments were manually picked and then segments were extracted with a box size of 900 pixels downscaled to 300 pixels. Contaminants and segments contributing to straight filaments were separated out using reference-free 2D class averaging. The remaining segments were re-extracted with a box size of 288 pixels without downscaling. An initial model was generated from a cylinder in RELION. One or more rounds of 3D classification with image alignment were performed, with helical rise and […] parameters fixed to eliminate obvious junk particles. One or more rounds of 3D auto-refinement was run using the best map from 3D classification low-pass filtered to 10 Å, allowing rise and twist parameters to vary. Maps were sharpened using the standard post-processing procedures in RELION.
Model building, refinement, and analysis. Prior to ligand placement, a single strand of a previously solved MSA or tau PHF filament stutr^2 (PDB: 6XYQ) was refined against the density using Phenix^7. Refinement of the ligand binding pocket was done in COOT^8. Ligands were placed by hand in the density using Chimera^9. This model was then translated to give a stack spanning 5 rungs.

| SMILES | co-structure of supramolecular polymeric inhibitor with α-synuclein fibrils |
| --- | --- |
| Cc1nccc2cc(-c3nc(-n4ccc5cccnc5c4=O)c(-c4ccc(C(F)(F)F)cc4)o3)ccc12 [compound 427] | bound to fibrils isolated from an MSA patient sample |
| O=c1nc2c(ccn2C(F)(F)F)cn1-c1nc(-c2ccnc(C3CC3)n2)oc1-c1ccc(F)cc1 [compound 293] | bound to fibrils isolated from an MSA patient sample |
| CNc1nc(=O)n(-c2nc(-c3cc(C)cc(C)n3)oc2-c2ccc(F)c(F)c2)cc1F [compound 294] | bound to fibrils isolated from an MSA patient sample |
| O=C(Cn1cc(-c2ccoc2)c(=O)c2ccc(N3CCCC3)cc21)Nc1ccccc1C(F)(F)F [Compound 149, 2-[3-(furan-3-yl)-4-oxo-7-(pyrrolidin-1-yl)-1,4-dihydroquinolin-1-yl]-N-[2-(trifluoromethyl)phenyl]acetamide] | bound to fibrils isolated from an MSA patient sample |
| CNC(=O)c1ncc2c(-c3ccnc(C(C)(F)F)n3)nn(-c3ccc(Cl)cc3)c2n1 [Compound 22, 1-(4-chlorophenyl)-3-(2-(1,1-difluoroethyl)pyrimidin-4-yl)-N-methyl-1H-pyrazolo[3,4-d]pyrimidine-6-carboxamide] | bound to fibrils isolated from an MSA patient sample |
| CNc1nc(=O)n(-c2nc(-c3cccc(Cl)c3)oc2-c2ccc(Cl)c(F)c2)cc1F [Compound 125, 1-(5-(4-chloro-3-fluorophenyl)-2-(3-chlorophenyl)oxazol-4-yl)-5-fluoro-4-(methylamino)pyrimidin-2 (1H)-one] | bound to fibrils isolated from an MSA patient sample |
| CNc1nc(=O)n(-c2nc(-c3cccc(C)c3)oc2-c2ccc(Cl)c(F)c2)cc1F [Compound 83, 1-(5-(4-chloro-3-fluorophenyl)-2-(m-tolyl)oxazol-4-yl)-5-fluoro-4-(methylamino)pyrimidin-2 (1H)-one] | bound to fibrils isolated from an MSA patient sample |

Same assay, conditions: α-synuclein fibril from an MSA patient, SEQ ID NO: 9

| SMILES | binding site on α-synuclein fibril |
| --- | --- |
| CNC(=O)c1ncc2c(-c3ccnc(C(C)(F)F)n3)nn(-c3ccc(Cl)cc3)c2n1 [Compound 22, 1-(4-chlorophenyl)-3-(2-(1,1-difluoroethyl)pyrimidin-4-yl)-N-methyl-1H-pyrazolo[3,4-d]pyrimidine-6-carboxamide] | bound to residues 86-99 |

System: tau paired-helical filaments (PHFs)
Assay: Cryo-EM co-structure with Alzheimer's disease tau paired helical filaments
Assay type: binding, human
Settings: AD tau PHF incubated with 20 uM GTP-1, cryo-EM
Description: Samples were incubated with 20 uM GTP-1 prior to vitrification. […] The micrograph images and their 2D classification reveal well-resolved filaments primarily in the PHF conformation, with crossover distances ranging from 700-800 Å. A minor population of straight filaments (SF) was also identified; however, further structural characterization was not feasible due to limited abundance. […] The PHF structure is comprised of two protofilaments related by two-fold symmetry with a 2.37 Å rise and 179.450 twist, consistent with previously reported structures of PHFs prepared from AD brains (13, 15). […]
Cryo-EM sample preparation and data collection. […] For the tau PHF, 3 μL of purified filaments mixed with GTP-1 was added to a glow-discharged 200 mesh 1.2/1.3R Au Quantifoil grid for 10 seconds before blotting for 2 seconds, and then a second 3 μL aliquot was added for 3 seconds and blotted for 1 second before being plunge frozen in liquid ethane using a FEI Vitrobot Mark IV (Thermo Fisher Scientific). For the synuclein ligands, 3 μL of purified filaments mixed with compound was added to a 200 mesh 1.2/1.3R Au Quantifoil grid coated with a 2 nm thick layer of carbon, which had not been glow discharged. […]

| SMILES | binding site on tau filament |
| --- | --- |
| [2H]C([2H])([18F])CC1CCN(c2ccn3c(n2)nc2ccccc23)CC1 [GTP-1] | bound to a solvent exposed cleft (residues 351-360) |
